Measurements from PubChem BioAssay (NCI).
Several values for one entry are separate records, joined by “and”; a condition that tells them apart may be missing. Equal values may be shown once.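 Five compound concentrations were applied to cells in 96-well plates for 48 hours; endpoints were derived by simple linear interpolation of the resulting dose-response curve. Here, GI50 denotes the concentration required for 50% inhibition of growth. The concentration for full growth arrest is given as TGI.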

Key:
Test in all cases: NCI-60 cell line screen, 48 h
[1] = tested on: HOP-62 NSCLC
[2] = tested on: CCRF-CEM leukemia
[3] = tested on: HT29 colon
[4] = tested on: MOLT-4 leukemia
[5] = tested on: SW-620 colon
[6] = tested on: OVCAR-5 ovarian
[7] = tested on: NCI-H226 lung
[8] = tested on: HL-60(TB) leukemia
[9] = tested on: T-47D breast
[10] = tested on: MCF7 breast

| Compound | TGI [1] | TGI [2] | TGI [3] | TGI [4] | TGI [5] | TGI [6] | TGI [7] | TGI [8] | GI50 [1] | GI50 [2] | GI50 [3] | GI50 [4] | GI50 [5] | GI50 [6] | GI50 [7] | GI50 [9] | TGI [9] | GI50 [10] | TGI [10] | GI50 [8] |
| --- | --- | --- | --- | --- | --- | --- | --- | --- | --- | --- | --- | --- | --- | --- | --- | --- | --- | --- | --- | --- |
| O=C(O)CSc1n[nH]c(-c2ccco2)n1 | > 100 µM | > 100 µM | > 100 µM | > 100 µM | > 100 µM | > 100 µM | > 100 µM | > 100 µM | – | – | – | – | – | – | – | – | – | – | – | – |
| N#CCc1cccc(CC#N)c1Br | > 100 µM | > 100 µM | > 100 µM | > 100 µM | > 100 µM | > 100 µM | > 100 µM | > 100 µM | – | – | – | – | – | – | – | – | – | – | – | – |
| CSC1=Nc2c(c(C)c(-c3ccccc3)n2COC(CO)CO)C2=NC(=O)CC(C)N12 (configuration not stated) | > 100 µM | > 100 µM | > 100 µM | > 100 µM | > 100 µM | > 100 µM | > 100 µM | – | 98.1 µM | > 100 µM | > 100 µM | > 100 µM | > 100 µM | > 100 µM | > 100 µM | > 100 µM | > 100 µM | > 100 µM | > 100 µM | – |
| Cc1cc(NN=C(c2ccc(O)cc2)c2ccc(O)cc2)c([N+](=O)[O-])cc1[N+](=O)[O-] | 18.2 µM | 34 µM | > 100 µM | 14.6 µM | 45.6 µM | 36.6 µM | 40.1 µM | 34.8 µM | 4.11 µM | 3.33 µM | 5.98 µM | 1.84 µM | 8.83 µM | 11.1 µM | 7.76 µM | – | – | 2.93 µM | 20.4 µM | 2.09 µM |
| Cc1ccc2ccc(-c3ccccc3)c3c2c1C(=O)c1ccccc1C3=O | > 100 µM | > 100 µM | > 100 µM | > 100 µM | > 100 µM | > 100 µM | > 100 µM | > 100 µM | – | – | – | – | – | – | – | – | – | – | – | – |
| Cc1ccc(S(=O)C(C)C(Cl)c2ccccc2)cc1 (configuration not stated) | > 100 µM | > 100 µM | > 100 µM | > 100 µM | > 100 µM | > 100 µM | > 100 µM | – | – | – | – | – | – | – | – | – | – | – | – | – |
| CCCCCCCCCCCCCCCC[n+]1ccccc1 | 2.35 µM and 1.9 µM | 1.33 µM | 0.765 µM and 1.26 µM | – | 1.57 µM and 1.94 µM | 1.86 µM and 2.93 µM | – | 1.21 µM | 1.05 µM and 0.482 µM | 0.281 µM | 0.199 µM and 0.25 µM | – | 0.391 µM and 0.488 µM | 0.494 µM and 0.842 µM | – | 0.5 µM and 0.445 µM | 3.42 µM and 3.91 µM | – | – | 0.326 µM |
| Cn1cnnc1[S-].[Au+].c1ccc([PH+](c2ccccc2)c2ccccc2)cc1 | – | – | – | – | – | 3.49 µM | 9.08 µM | 4.44 µM | – | – | – | – | – | 1.88 µM | 2.75 µM | – | – | – | – | 1.48 µM |
| CCOC(=O)c1c(NC(=O)c2ccc(Cl)cc2)sc2c(CN(C)C)c(O)ccc12 | 27.1 µM | > 100 µM | 7.13 µM | > 100 µM | 7.33 µM | 57.2 µM | > 100 µM | – | 5.58 µM | 13.3 µM | 2.48 µM | 4.11 µM | 2.4 µM | 9.1 µM | 18.3 µM | 4.88 µM | > 100 µM | 7.57 µM | > 100 µM | – |
| O=C(O)c1ccccc1NCn1c(=S)sc2ccccc21 | > 100 µM | 52.2 µM | > 100 µM | > 100 µM | > 100 µM | > 100 µM | – | 38 µM | – | – | – | – | – | – | – | – | > 100 µM | – | 51.7 µM | – |
| Clc1ccc(CN2CCCN(Cc3ccc(Cl)cc3)C2c2cc3ccccc3c3ccccc23)cc1 | > 100 µM | – | > 100 µM | > 100 µM | > 100 µM | > 100 µM | > 100 µM | – | – | – | – | – | – | – | – | – | > 100 µM | – | > 100 µM | – |
| CCc1ccc2c(c1)N(CCO)C1=C(C(=O)OC1)C2c1cc(OC)c(OC)c(OC)c1 (configuration not stated) | > 50 µM | > 50 µM | 0.447 µM | > 50 µM | > 50 µM | > 50 µM | 2.44 µM | 0.48 µM | 0.207 µM | 0.185 µM | 0.143 µM | 0.486 µM | 0.168 µM | 0.422 µM | 0.178 µM | – | – | 0.209 µM | > 50 µM | 0.142 µM |
| O=C1OC(=O)C([Se]c2ccccc2)=C1[Se]c1ccccc1 | > 100 µM | > 100 µM | > 100 µM | > 100 µM | > 100 µM | > 100 µM | > 100 µM | > 100 µM | – | – | – | – | – | – | – | – | – | – | – | – |
| COc1cccc(/C=N\NC(=O)C(C)SC(C)C(=O)N/N=C/c2cccc(OC)c2)c1 (configuration not stated) | 33.1 µM | > 93.5 µM | > 100 µM | > 100 µM | > 100 µM | > 100 µM | 47.5 µM | > 100 µM | – | – | – | – | – | – | – | – | – | – | – | – |
| C=C1CC[C@H]2C(C)=CC[C@H]3C(=C)C(=O)O[C@@H]3[C@@H]12 | – | > 100 µM | > 100 µM | > 100 µM | > 100 µM | > 100 µM | > 100 µM | > 100 µM | – | – | – | – | – | – | – | – | > 100 µM | – | > 100 µM | – |
| O=C(/C=C/c1ccccc1O)c1ccccc1Cl | > 100 µM | 88.5 µM | > 100 µM | 84.1 µM | > 100 µM | > 100 µM | > 100 µM | 63.8 µM | – | – | – | – | – | – | – | – | – | – | – | – |
| CC1(C)OC(=O)C(=C2CCC(C(=O)Nc3cccc(C(F)(F)F)c3)N2)C(=O)O1 (configuration not stated) | > 100 µM | > 100 µM | > 100 µM | > 100 µM | > 100 µM | > 100 µM | > 100 µM | > 100 µM | – | – | – | – | – | – | – | – | – | – | – | – |
| O=C1C(=O)C2(CC1S(=O)(=O)c1ccccc1)c1ccccc1-c1ccccc12 (configuration not stated) | 44 µM | 58.2 µM | 59.7 µM | 50.5 µM | 85.1 µM | 46.5 µM | 82.6 µM | 58 µM | – | – | – | – | – | – | – | – | – | – | – | – |
| O=C1CCC(=O)N1Sc1ccccc1 | > 100 µM | > 100 µM | – | > 100 µM | > 100 µM | – | – | > 100 µM | – | – | – | – | – | – | – | – | – | – | – | – |
| COc1ccc(-c2c(N)noc2-c2cc(OC)c3c(c2)OCCO3)cc1 | > 54.8 µM | 1.74 µM | 0.823 µM | 5.31 µM | > 100 µM | > 100 µM | – | 0.0434 µM | < 0.0123 µM | 0.0166 µM | < 0.01 µM | 0.0353 µM | < 0.01 µM | 0.0542 µM | – | 0.64 µM | 41.2 µM | < 0.01 µM | > 100 µM | 0.0102 µM |
